Assay [1] concerns the target T1, Phosphatidylinositol 4,5-bisphosphate 3-kinase catalytic subunit gamma isoform (Homo sapiens, UniProt P48736). Briefly: Inhibition of PI3Kgamma in human THP-1 cells assessed as reduction in Akt phosphorylation at Ser473 residue. It is filed as cell-based.
In assay [2] the target is T1, Phosphatidylinositol 4,5-bisphosphate 3-kinase catalytic subunit gamma isoform. Briefly: Inhibition of PI3Kgamma (unknown origin) using PIP2 as substrate measured after 15 mins in presence of [33P]-ATP by liquid scintillation counting method.
The target of assay [3] is Tyrosine-protein kinase JAK2 (Homo sapiens, UniProt O60674). Briefly: Inhibition of JAK2 (unknown origin).
In assay [4] the target is Tyrosine-protein kinase SYK (Homo sapiens, UniProt P43405). Nature of the assay: Inhibition of SYK (unknown origin).
For assay [5], the target named is Cyclin-dependent kinase 2 (Homo sapiens, UniProt P24941). Briefly: Inhibition of CDK2 (unknown origin).
Assay [6] deals with Vascular endothelial growth factor receptor 2 (Homo sapiens, UniProt P35968). Briefly: Inhibition of KDR (unknown origin).
Chain of Vascular endothelial growth factor receptor 2 (P35968 whole entry): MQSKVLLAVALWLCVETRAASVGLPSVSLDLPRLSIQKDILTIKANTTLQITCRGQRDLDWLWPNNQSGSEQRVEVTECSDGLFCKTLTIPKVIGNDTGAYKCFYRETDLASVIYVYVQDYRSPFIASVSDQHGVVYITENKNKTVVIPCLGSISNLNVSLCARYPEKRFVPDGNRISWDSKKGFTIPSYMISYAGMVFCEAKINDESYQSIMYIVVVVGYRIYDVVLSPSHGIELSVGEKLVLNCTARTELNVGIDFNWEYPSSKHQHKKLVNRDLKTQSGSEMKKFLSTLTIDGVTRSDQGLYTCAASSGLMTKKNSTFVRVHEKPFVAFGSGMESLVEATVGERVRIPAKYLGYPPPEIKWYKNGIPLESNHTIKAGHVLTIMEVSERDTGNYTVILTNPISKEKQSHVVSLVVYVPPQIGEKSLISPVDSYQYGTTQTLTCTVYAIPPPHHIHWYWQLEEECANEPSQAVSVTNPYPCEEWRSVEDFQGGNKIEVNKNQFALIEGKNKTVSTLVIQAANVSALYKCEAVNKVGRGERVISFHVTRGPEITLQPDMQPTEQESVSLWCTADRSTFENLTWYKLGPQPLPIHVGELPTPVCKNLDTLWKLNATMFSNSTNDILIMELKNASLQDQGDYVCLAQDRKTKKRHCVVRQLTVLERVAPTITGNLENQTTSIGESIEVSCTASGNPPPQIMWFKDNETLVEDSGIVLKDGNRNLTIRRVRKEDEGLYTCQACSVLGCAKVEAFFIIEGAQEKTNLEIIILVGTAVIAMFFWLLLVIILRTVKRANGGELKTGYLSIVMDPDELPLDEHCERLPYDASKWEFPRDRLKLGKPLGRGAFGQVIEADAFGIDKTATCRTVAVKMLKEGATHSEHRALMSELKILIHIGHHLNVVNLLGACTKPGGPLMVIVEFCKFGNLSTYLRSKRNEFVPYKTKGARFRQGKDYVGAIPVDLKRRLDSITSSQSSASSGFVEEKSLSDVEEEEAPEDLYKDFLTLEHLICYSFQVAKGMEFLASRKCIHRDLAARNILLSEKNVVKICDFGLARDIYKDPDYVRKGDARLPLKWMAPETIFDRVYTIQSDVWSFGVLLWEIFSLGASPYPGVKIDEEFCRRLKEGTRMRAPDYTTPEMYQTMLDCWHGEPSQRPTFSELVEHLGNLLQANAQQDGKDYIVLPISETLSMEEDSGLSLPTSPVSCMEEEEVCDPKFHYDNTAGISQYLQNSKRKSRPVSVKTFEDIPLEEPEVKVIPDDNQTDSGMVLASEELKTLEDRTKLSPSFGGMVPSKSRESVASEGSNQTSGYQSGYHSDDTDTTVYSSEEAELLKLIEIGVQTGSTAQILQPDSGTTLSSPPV
Assay [7] concerns the target Mitogen-activated protein kinase 10 (Homo sapiens, UniProt P53779). Nature of the assay: Inhibition of JNK3 (unknown origin).
Assay [8] concerns the target T2, Receptor-type tyrosine-protein kinase FLT3 (Homo sapiens, UniProt P36888).
T2 sequence (P36888 whole entry): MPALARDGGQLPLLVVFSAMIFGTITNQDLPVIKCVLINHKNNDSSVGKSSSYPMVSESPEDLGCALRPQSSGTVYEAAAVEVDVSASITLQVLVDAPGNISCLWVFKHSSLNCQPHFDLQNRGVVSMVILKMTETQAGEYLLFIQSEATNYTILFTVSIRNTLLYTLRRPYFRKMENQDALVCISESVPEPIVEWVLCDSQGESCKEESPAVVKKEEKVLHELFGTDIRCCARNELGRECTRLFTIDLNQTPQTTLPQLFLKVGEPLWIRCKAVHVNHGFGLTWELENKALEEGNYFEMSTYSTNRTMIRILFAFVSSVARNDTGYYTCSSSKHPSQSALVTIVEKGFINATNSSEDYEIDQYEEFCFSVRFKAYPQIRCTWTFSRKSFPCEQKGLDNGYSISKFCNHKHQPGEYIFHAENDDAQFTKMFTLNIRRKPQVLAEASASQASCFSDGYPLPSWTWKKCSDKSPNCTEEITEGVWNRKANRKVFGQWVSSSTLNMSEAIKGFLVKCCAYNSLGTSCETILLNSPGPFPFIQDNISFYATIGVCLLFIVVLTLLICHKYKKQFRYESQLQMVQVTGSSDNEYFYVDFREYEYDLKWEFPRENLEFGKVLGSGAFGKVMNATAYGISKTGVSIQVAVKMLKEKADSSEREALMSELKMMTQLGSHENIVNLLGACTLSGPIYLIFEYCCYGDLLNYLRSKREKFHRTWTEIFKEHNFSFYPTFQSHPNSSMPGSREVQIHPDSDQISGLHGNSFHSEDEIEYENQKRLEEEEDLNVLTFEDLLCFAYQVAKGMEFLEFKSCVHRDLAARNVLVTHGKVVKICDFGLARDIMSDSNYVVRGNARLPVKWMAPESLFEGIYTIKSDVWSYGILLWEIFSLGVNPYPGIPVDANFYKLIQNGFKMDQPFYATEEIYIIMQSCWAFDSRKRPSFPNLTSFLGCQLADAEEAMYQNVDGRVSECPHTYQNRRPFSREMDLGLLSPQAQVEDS
Briefly: Inhibition of FLT3 (unknown origin).

For assay [9], the target named is Proto-oncogene tyrosine-protein kinase Src (Homo sapiens, UniProt P12931). Nature of the assay: Inhibition of SRC (unknown origin).
Chain of Proto-oncogene tyrosine-protein kinase Src (P12931 2-536 limits assumed): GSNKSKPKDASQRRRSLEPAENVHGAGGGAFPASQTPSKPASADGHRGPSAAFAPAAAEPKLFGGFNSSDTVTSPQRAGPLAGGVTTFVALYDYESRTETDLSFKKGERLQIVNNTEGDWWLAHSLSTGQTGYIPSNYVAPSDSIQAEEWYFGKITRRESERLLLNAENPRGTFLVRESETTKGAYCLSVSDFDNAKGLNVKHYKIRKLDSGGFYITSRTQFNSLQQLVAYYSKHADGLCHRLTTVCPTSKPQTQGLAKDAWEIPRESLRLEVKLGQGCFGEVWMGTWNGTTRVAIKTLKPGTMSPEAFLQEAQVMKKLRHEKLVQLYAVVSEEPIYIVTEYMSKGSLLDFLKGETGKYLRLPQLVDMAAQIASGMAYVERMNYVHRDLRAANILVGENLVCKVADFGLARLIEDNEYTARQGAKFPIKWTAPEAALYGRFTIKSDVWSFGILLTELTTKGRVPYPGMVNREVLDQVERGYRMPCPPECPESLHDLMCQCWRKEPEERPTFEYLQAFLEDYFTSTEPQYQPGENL
Assay [10] addresses Rho-associated protein kinase 1 (Homo sapiens, UniProt Q13464). Briefly: Inhibition of ROCK1 (unknown origin).
Assay [11] deals with Serine/threonine-protein kinase PLK1 (Homo sapiens, UniProt P53350). Briefly: Inhibition of PLK1 (unknown origin).
Chain of Serine/threonine-protein kinase PLK1 (P53350 whole entry): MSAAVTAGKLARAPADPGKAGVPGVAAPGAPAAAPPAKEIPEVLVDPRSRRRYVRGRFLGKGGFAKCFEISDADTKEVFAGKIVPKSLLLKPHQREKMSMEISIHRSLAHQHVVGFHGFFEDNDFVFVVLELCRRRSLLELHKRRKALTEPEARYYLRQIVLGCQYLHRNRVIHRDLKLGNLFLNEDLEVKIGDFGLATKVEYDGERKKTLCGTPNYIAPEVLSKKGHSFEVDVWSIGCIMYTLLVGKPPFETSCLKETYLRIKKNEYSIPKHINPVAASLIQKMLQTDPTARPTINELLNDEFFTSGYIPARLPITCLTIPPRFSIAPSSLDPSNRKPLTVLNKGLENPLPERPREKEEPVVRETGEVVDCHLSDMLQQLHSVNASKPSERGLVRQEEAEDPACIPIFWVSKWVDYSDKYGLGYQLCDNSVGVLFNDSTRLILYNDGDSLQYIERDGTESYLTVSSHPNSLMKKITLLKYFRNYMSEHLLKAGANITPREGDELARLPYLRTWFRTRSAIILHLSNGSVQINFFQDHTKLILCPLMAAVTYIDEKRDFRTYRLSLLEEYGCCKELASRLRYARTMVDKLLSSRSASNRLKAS
Assay [12] concerns the target Glycogen synthase kinase-3 beta (Homo sapiens, UniProt P49841). Nature of the assay: Inhibition of GSK3B (unknown origin).
Assay [13] concerns the target T3, Interleukin-1 receptor-associated kinase 4 (Homo sapiens, UniProt Q9NWZ3).
T3 sequence (Q9NWZ3 whole entry): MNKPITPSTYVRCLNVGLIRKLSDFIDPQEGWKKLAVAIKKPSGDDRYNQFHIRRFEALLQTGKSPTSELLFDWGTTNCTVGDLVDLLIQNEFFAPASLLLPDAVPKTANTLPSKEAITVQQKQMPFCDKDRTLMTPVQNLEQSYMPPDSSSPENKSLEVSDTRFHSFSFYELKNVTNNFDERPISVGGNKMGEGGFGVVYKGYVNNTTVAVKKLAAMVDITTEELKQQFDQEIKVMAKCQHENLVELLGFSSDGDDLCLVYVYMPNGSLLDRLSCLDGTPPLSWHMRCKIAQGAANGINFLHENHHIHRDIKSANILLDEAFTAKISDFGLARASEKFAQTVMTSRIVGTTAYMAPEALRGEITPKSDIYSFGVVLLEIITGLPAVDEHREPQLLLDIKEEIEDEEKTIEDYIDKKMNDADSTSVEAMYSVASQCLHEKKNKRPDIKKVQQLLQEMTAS
Briefly: Inhibition of IRAK4 (unknown origin).

The subject of the next assay is Mus musculus. Nature of the assay: Antiinflammatory activity against Balb/c mouse air pouch model assessed as decrease in IL-8 stimulated neutrophil recruitment in air pouch at 50 mg/kg, po treated for 1 hr prior to IL-8 administration and measured after 4 hrs by FACS analysis. It is filed as functional. Particulars: time 5 hrs. (In general: In flow cytometry, cells or beads pass a laser one at a time.)

The target in assay [14] is Phosphatidylinositol 4,5-bisphosphate 3-kinase catalytic subunit alpha isoform (Homo sapiens, UniProt P42336). Nature of the assay: Inhibition of PI3Kalpha (unknown origin) using PIP2 as substrate measured after 15 mins in presence of [33P]-ATP by liquid scintillation counting method.

Drawing on ChEMBL document CHEMBL4673392, “Discovery of a Novel Series of Potent and Selective Alkynylthiazole-Derived PI3Kγ Inhibitors” (ACS Med Chem Lett, 2021), this text covers IC50, Ki and inhibition in vivo for nine compounds.

The IC50 is the concentration that gives 50% inhibition. The term Ki denotes the dissociation constant of the complex between target and ligand, obtained from inhibition or displacement. The inhibition in vivo is the share of the control response that was lost under treatment.

Molecules are shown by their SMILES. A value given as a limit tells only on which side of the number the result lay.

Chain of Rho-associated protein kinase 1 (Q13464 whole entry): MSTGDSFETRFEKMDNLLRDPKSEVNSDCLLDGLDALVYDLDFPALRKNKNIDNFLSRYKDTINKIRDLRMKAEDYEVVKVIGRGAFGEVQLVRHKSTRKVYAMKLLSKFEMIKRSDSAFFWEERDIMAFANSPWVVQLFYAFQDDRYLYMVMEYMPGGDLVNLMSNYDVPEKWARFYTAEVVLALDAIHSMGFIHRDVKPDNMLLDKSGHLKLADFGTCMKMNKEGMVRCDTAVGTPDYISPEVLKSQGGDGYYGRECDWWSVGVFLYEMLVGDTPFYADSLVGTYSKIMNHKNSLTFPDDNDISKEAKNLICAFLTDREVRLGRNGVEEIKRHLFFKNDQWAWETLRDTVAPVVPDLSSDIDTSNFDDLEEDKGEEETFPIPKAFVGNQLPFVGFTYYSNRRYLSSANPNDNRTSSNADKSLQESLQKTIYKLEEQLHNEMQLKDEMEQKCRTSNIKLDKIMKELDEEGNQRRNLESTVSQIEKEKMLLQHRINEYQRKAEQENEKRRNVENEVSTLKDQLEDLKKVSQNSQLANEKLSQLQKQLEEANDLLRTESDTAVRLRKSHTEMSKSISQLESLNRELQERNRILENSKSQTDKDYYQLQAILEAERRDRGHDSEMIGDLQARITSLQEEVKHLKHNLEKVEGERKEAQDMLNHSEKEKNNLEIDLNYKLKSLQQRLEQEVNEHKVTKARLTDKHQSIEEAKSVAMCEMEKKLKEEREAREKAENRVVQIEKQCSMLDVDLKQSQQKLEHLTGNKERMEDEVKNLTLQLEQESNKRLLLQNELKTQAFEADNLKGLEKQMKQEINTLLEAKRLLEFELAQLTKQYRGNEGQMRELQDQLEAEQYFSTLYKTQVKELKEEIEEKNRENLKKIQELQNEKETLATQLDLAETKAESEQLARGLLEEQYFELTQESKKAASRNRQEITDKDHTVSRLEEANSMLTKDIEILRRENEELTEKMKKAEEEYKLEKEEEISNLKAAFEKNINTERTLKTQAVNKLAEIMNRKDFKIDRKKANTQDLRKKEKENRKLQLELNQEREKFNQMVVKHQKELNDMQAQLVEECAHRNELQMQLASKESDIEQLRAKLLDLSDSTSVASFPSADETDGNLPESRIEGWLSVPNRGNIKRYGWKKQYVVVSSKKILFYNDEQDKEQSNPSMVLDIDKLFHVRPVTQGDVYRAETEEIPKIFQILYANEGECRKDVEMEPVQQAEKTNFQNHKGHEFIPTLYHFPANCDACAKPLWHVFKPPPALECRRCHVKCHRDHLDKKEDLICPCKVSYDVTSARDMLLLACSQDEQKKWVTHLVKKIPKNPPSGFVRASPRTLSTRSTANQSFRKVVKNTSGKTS
Chain of Mitogen-activated protein kinase 10 (P53779 whole entry): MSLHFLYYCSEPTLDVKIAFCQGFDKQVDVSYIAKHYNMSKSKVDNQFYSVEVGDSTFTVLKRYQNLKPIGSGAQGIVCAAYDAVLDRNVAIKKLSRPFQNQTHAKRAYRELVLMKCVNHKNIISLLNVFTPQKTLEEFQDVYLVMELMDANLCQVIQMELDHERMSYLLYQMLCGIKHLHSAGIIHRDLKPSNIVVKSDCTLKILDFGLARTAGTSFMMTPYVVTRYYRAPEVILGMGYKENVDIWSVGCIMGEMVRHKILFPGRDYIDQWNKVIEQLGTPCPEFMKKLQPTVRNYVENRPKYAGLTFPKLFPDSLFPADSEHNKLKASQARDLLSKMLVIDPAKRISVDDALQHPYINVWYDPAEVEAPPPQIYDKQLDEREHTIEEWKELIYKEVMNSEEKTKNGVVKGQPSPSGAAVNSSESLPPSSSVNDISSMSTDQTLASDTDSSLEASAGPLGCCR
Chain of Glycogen synthase kinase-3 beta (P49841 whole entry): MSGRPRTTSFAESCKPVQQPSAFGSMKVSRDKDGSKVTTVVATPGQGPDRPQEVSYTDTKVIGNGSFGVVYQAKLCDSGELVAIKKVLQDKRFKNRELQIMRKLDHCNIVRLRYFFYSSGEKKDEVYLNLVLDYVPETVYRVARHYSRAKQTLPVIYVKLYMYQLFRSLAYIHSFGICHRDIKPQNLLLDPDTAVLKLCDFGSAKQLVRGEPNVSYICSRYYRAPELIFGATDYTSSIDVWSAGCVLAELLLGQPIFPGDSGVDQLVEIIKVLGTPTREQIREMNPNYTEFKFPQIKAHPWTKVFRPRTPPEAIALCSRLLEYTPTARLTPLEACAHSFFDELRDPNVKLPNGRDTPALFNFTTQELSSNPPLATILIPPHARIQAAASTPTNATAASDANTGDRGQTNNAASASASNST

Turning to `COCCNC(=O)Nc1nc(C)c(C#Cc2ccncc2)s1`, in [1], the half-maximal inhibitory concentration (IC50) was found to be 0.76 µM. Besides, in assay [2], the Ki is 0.043 µM.
As for `CCCOCCNC(=O)Nc1nc(C)c(C#Cc2ccncc2)s1`, in assay [1], the IC50 was found to be 0.23 µM. Besides, the Ki in [2] turned out to be 0.006 µM.
The like results for `Cc1nc(NC(=O)NCCOCC2CC2)sc1C#Cc1cnc2ncccc2c1` were, in that order, above 10 µM and 0.045 µM.
Take `CCOCCNC(=O)Nc1nc(C)c(C#Cc2ccncc2)s1`: the concentration for half-maximal inhibition (IC50) in assay [1] was 0.56 µM. Also, the Ki in assay [2] worked out at 0.042 µM.
Take `COc1cc(C#Cc2sc(NC(=O)NCCOCC3CC3)nc2C)cnc1OC`: the Ki in assay [3], in assay [4], in assay [5], in assay [6], in [7] and in assay [8] was above 4 µM each time. Also, the inhibition constant Ki was above 4 µM in assay [9]; above 4 µM in assay [10]; above 4 µM in [11]; above 4 µM in assay [12]; above 4 µM in assay [13]; 0.003 µM in [2]. Further, in the assay on Mus musculus, the inhibition in vivo at 50 mg/kg came to 85%. Further, the half-maximal inhibitory concentration (IC50) in assay [1] was 0.18 µM.
As to `Cc1nc(NC(=O)NCCOCC2CC2)sc1C#Cc1ccnc2ccccc12`, the concentration for half-maximal inhibition (IC50) in [1] came to 0.29 µM. In assay [2], the Ki worked out at 0.006 µM.
Turning to `Cc1nc(NC(=O)NCCOCC2CC2)sc1C#Cc1ccc2cncn2c1`, the Ki in [3], in assay [4], in assay [5], in [6], in [7] and in assay [8] was above 4 µM in each case. The inhibition constant Ki in [9], in assay [10], in [11], in assay [12] and in assay [13] was above 4 µM in each case.
With `Cc1nc(NC(=O)NCCc2cn(CC(F)F)cn2)sc1C#Cc1cccnc1`, the inhibition constant (Ki) in [3], in [4], in [5], in [6], in assay [7] and in assay [8] was above 4 µM throughout. Besides, the Ki was above 4 µM in assay [9]; above 4 µM in [10]; 0.252 µM in assay [14]; above 4 µM in [11]; above 4 µM in assay [12]; above 4 µM in assay [13]. Further, the Ki in assay [2] is 0.004 µM. The IC50 in assay [1] was found to be 0.13 µM.
On to `Cc1nc(NC(=O)NCCOCC2CC2)sc1C#Cc1ccnc(F)c1`, for which, in assay [1], the half-inhibitory concentration (IC50) is 0.49 µM. Besides, the inhibition constant (Ki) in assay [2] was found to be 0.006 µM.
